According to patent publication US12195427B2, “MASP-2 inhibitors and methods of use” (priority 2018, dated 2025):

target: MASP-2 CCP2-SP (Homo sapiens (Human), UniProt O00187); assay: MASP-2 co-crystallization, X-ray crystallography and structure analysis (H-bonds, van der Waals contacts); set-up: van der Waals contact distance, MASP-2 HIS 483 atom CD2 / van der Waals contact distance, MASP-2 HIS 483 atom NE2 / van der Waals contact distance, SER 654 C to compound atom / van der Waals contact distance, SER 654 O to compound atom / van der Waals contact distance, TRP 655 C to compound atom / van der Waals contact distance, MASP-2 GLY 528 atom CA / van der Waals contact distance TRP 655 atom CZ3 / van der Waals contact distance TRP 655 atom N / van der Waals contact distance TRP 655 atom CE3 / van der Waals contact distance GLY 656 atom C / van der Waals contact distance GLY 656 atom CA / van der Waals contact distance GLY 656 atom O / van der Waals contact distance, MASP-2 TYR 607 atom CD1 / van der Waals contact distance, MASP-2 PRO 606 atom O / d(C3,CA1) / d(CA1,N1)2 / d(H4,O1) / d(H4,O2) / d(O1,O2) / d(CA1,O2) / d(CA6,O1) / d(CA6,O2) / d(CA1,C5) / d(O2,H3) / d(N2,C2) / d(CA5,N2) / d(N2,C4) / d(N2,C6) / d(N2,CA3) / d(N2,O3) / d(O4,H2): unit not given beside the values; conditions: Table A4-1; element C2;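 on Ligand-pharmacophore element distance, pharmacophore element C2: distance from averaged pharmacophore element to bound ligand; missing value means element absent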;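 on Ligand-pharmacophore element distance, pharmacophore element C3: distance from averaged pharmacophore element to bound ligand; missing value means element absent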;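 on Ligand-pharmacophore element distance, pharmacophore element C4: distance from averaged pharmacophore element to bound ligand; missing value means element absent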;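 on Ligand-pharmacophore element distance, pharmacophore element C5: distance from averaged pharmacophore element to bound ligand; missing value means element absent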
Sequence (O00187 445-686): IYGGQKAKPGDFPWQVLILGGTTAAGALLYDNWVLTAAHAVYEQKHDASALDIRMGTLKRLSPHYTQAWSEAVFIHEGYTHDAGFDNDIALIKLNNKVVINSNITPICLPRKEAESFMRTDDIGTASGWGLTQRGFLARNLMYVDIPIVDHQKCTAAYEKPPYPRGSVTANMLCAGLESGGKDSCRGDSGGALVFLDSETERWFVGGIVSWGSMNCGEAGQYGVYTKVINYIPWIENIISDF
Sequence (O00187 364-432 partner): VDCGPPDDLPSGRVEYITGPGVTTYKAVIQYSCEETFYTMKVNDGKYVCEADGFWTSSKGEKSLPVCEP
Source text: This example illustrates the preparation of recombinant MASP-2 protein, based on UniProt O00187, human mannan-binding lectin serine protease 2. Expression constructs for human MASP-2 CCP2-SP and CCP2-SP-6HIS were generated for recombinant expression in E. coli cells.
Typically, crystallization hits were obtained by screening against […] 96-well crystallization reagent kits (GRAS6, GRAS2, Hampton Research; MORPHEUS, Molecular Dimensions; Wizard 1&2 Cryo, Rigaku Reagents) and crystal growth was inspected by optical microscopy. Crystals were used directly or further optimized for X-ray diffraction. Crystals were captured with cryogenic loops and dipped into liquid nitrogen directly or cryoprotected with a 20% glycerol in crystallization formulation before flash-cooling in liquid nitrogen.
Thereafter crystals are transferred once or twice for soaking within the crystallization solution containing the MASP-2 inhibitor.
Crystals were diffracted with synchrotron X-rays of […] and X-ray diffraction datasets were collected at beamlines SSRL BL9-2, BL14-1, BL12-2 as well as ALS sector 5 using Dectris Pilatus and Eiger detectors. Structures were determined by molecular replacement using portions of the structure 1Q3X as search models and partially refined with Buster 2.10.2 or Refmac 5.8. […] When multiple ligand poses were observed, for instance arising from multiple molecules in the asymmetric unit or refined dual poses within the same molecule, only one pose was selected and analyzed.
LigPlot+ calls these ‘nonbonded contacts’ or ‘hydrophobic contacts’. Despite the name, there are atom pairings that include possible H-bonds. Thus, in some instances, the Table A2 also contains H-bond interactions.

Row | SMILES | Ligand-pharmacophore element distance, pharmacophore element C2
1 | C[C@H](NC(=O)[C@H]1C[C@@H](c2ccccc2)CCN1)C(=O)NCc1cc(Cl)ccc1O.Cl [1078_10] | 0.49
2 | C[C@H](NC(=O)[C@H]1C[C@@H](c2ccccc2)CCN1)C(=O)NCc1cc(Cl)ccc1O.Cl [1078_11] | 0.6

same assay, conditions: Table A4-1; element C3

Row | SMILES | Ligand-pharmacophore element distance, pharmacophore element C3
3 | C[C@H](NC(=O)[C@H]1C[C@@H](c2ccccc2)CCN1)C(=O)NCc1cc(Cl)ccc1O.Cl [1078_10] | 0
4 | C[C@H](NC(=O)[C@H]1C[C@@H](c2ccccc2)CCN1)C(=O)NCc1cc(Cl)ccc1O.Cl [1078_11] | 0

same assay, conditions: Table A4-1; element C4

Row | SMILES | Ligand-pharmacophore element distance, pharmacophore element C4
5 | C[C@H](NC(=O)[C@H]1C[C@@H](c2ccccc2)CCN1)C(=O)NCc1cc(Cl)ccc1O.Cl [1078_10] | 0
6 | C[C@H](NC(=O)[C@H]1C[C@@H](c2ccccc2)CCN1)C(=O)NCc1cc(Cl)ccc1O.Cl [1078_11] | 0

same assay, conditions: Table A4-1; element C5

Row | SMILES | Ligand-pharmacophore element distance, pharmacophore element C5
7 | C[C@H](NC(=O)[C@H]1C[C@@H](c2ccccc2)CCN1)C(=O)NCc1cc(Cl)ccc1O.Cl [1078_10] | 0.3
8 | C[C@H](NC(=O)[C@H]1C[C@@H](c2ccccc2)CCN1)C(=O)NCc1cc(Cl)ccc1O.Cl [1078_11] | 0.41

same assay, conditions: Table A4-1; element C6

Row | SMILES | Ligand-pharmacophore element distance, pharmacophore element C6
9 | C[C@H](NC(=O)[C@H]1C[C@@H](c2ccccc2)CCN1)C(=O)NCc1cc(Cl)ccc1O.Cl [1078_10] | 0
10 | C[C@H](NC(=O)[C@H]1C[C@@H](c2ccccc2)CCN1)C(=O)NCc1cc(Cl)ccc1O.Cl [1078_11] | 0

same assay, conditions: Table A4-1; element C7

Row | SMILES | Ligand-pharmacophore element distance, pharmacophore element C7
11 | C[C@H](NC(=O)[C@H]1C[C@@H](c2ccccc2)CCN1)C(=O)NCc1cc(Cl)ccc1O.Cl [1078_10] | 0
12 | C[C@H](NC(=O)[C@H]1C[C@@H](c2ccccc2)CCN1)C(=O)NCc1cc(Cl)ccc1O.Cl [1078_11] | 0

same assay, conditions: Table A4-1; element CA1

Row | SMILES | Ligand-pharmacophore element distance, pharmacophore element CA1
13 | C[C@H](NC(=O)[C@H]1C[C@@H](c2ccccc2)CCN1)C(=O)NCc1cc(Cl)ccc1O.Cl [1078_10] | 1.34
14 | C[C@H](NC(=O)[C@H]1C[C@@H](c2ccccc2)CCN1)C(=O)NCc1cc(Cl)ccc1O.Cl [1078_11] | 1.64

same assay, conditions: Table A4-1; element CA2

Row | SMILES | Ligand-pharmacophore element distance, pharmacophore element CA2
15 | C[C@H](NC(=O)[C@H]1C[C@@H](c2ccccc2)CCN1)C(=O)NCc1cc(Cl)ccc1O.Cl [1078_10] | 0.49
16 | C[C@H](NC(=O)[C@H]1C[C@@H](c2ccccc2)CCN1)C(=O)NCc1cc(Cl)ccc1O.Cl [1078_11] | 0.64

same assay, conditions: Table A4-1; element CA3

Row | SMILES | Ligand-pharmacophore element distance, pharmacophore element CA3
17 | C[C@H](NC(=O)[C@H]1C[C@@H](c2ccccc2)CCN1)C(=O)NCc1cc(Cl)ccc1O.Cl [1078_10] | 0
18 | C[C@H](NC(=O)[C@H]1C[C@@H](c2ccccc2)CCN1)C(=O)NCc1cc(Cl)ccc1O.Cl [1078_11] | 0

same assay, conditions: Table A4-1; element CA4

Row | SMILES | Ligand-pharmacophore element distance, pharmacophore element CA4
19 | C[C@H](NC(=O)[C@H]1C[C@@H](c2ccccc2)CCN1)C(=O)NCc1cc(Cl)ccc1O.Cl [1078_10] | 0
20 | C[C@H](NC(=O)[C@H]1C[C@@H](c2ccccc2)CCN1)C(=O)NCc1cc(Cl)ccc1O.Cl [1078_11] | 0

same assay, conditions: Table A4-1; element CA5

Row | SMILES | Ligand-pharmacophore element distance, pharmacophore element CA5
21 | C[C@H](NC(=O)[C@H]1C[C@@H](c2ccccc2)CCN1)C(=O)NCc1cc(Cl)ccc1O.Cl [1078_10] | 0
22 | C[C@H](NC(=O)[C@H]1C[C@@H](c2ccccc2)CCN1)C(=O)NCc1cc(Cl)ccc1O.Cl [1078_11] | 0

same assay, conditions: Table A4-1; element CA6

Row | SMILES | Ligand-pharmacophore element distance, pharmacophore element CA6
23 | C[C@H](NC(=O)[C@H]1C[C@@H](c2ccccc2)CCN1)C(=O)NCc1cc(Cl)ccc1O.Cl [1078_10] | 0
24 | C[C@H](NC(=O)[C@H]1C[C@@H](c2ccccc2)CCN1)C(=O)NCc1cc(Cl)ccc1O.Cl [1078_11] | 0

same assay, conditions: Table A5-1 pharmacophore: distance between elements, S2/S1 region

Row | SMILES | d(CA1,C5) | d(CA1,O1) | d(CA1,O2) | d(CA1,O4) | d(H4,O1) | d(H4,O2) | d(O1,O2) | d(O4,H2)
25 | C[C@H](NC(=O)[C@H]1C[C@@H](c2ccccc2)CCN1)C(=O)NCc1cc(Cl)ccc1O.Cl [1078_10] | 3.12 | 4.35 | 4.37 | 2.76 | 3.11 | 3.46 | 2.72 | 0.97
26 | C[C@H](NC(=O)[C@H]1C[C@@H](c2ccccc2)CCN1)C(=O)NCc1cc(Cl)ccc1O.Cl [1078_11] | 3.12 | 4.69 | 4.58 | 2.75 | 2.26 | 2.51 | 3.42 | 0.97

same assay, conditions: Table A5-2 pharmacophore distance, S3/S4 region

Row | SMILES | d(N2,C2) | d(N2,CA2) | d(O2,H3) | d(O2,N2)
27 | C[C@H](NC(=O)[C@H]1C[C@@H](c2ccccc2)CCN1)C(=O)NCc1cc(Cl)ccc1O.Cl [1078_10] | 1.48 | 5.72 | 1.97 | 2.74
28 | C[C@H](NC(=O)[C@H]1C[C@@H](c2ccccc2)CCN1)C(=O)NCc1cc(Cl)ccc1O.Cl [1078_11] | 1.47 | 5.75 | 3.05 | 2.97

same assay, conditions: Table A6-1 pharmacophore angle

Row | SMILES | a(C5, CA1, O1) | a(CA1, O1, O2) | a(CA1, O4, H2) | a(O1, CA1, O4) | a(O1, O2, H4)
29 | C[C@H](NC(=O)[C@H]1C[C@@H](c2ccccc2)CCN1)C(=O)NCc1cc(Cl)ccc1O.Cl [1078_10] | 160.63 | 108.49 | 127.01 | 71.55 | 131.53
30 | C[C@H](NC(=O)[C@H]1C[C@@H](c2ccccc2)CCN1)C(=O)NCc1cc(Cl)ccc1O.Cl [1078_11] | 161.80 | 109.94 | 130.34 | 59.87 | 88.73

same assay, conditions: Table A6-2 pharmacophore angle

Row | SMILES | a(O1, O2, H3) | a(O1, O2, N2) | a(O2, N2, C2) | a(O2, N2, CA2)
31 | C[C@H](NC(=O)[C@H]1C[C@@H](c2ccccc2)CCN1)C(=O)NCc1cc(Cl)ccc1O.Cl [1078_10] | 146.00 | 152.80 | 131.78 | 156.19
32 | C[C@H](NC(=O)[C@H]1C[C@@H](c2ccccc2)CCN1)C(=O)NCc1cc(Cl)ccc1O.Cl [1078_11] | 137.81 | 142.32 | 120.15 | 152.82

same assay, conditions: Table A7-1; between pharmacophore elements of the bound compound

Row | SMILES | Pharmacophore torsion angle a(C5, CA1, O1, H4) | Pharmacophore torsion angle a(H4, O1, O2, H3) | Pharmacophore torsion angle a(H4, O1, O2, N2) | Pharmacophore torsion angle a(O1, H4, O2, CA1) | Pharmacophore torsion angle a(O1, O2, N2, C2)
33 | C[C@H](NC(=O)[C@H]1C[C@@H](c2ccccc2)CCN1)C(=O)NCc1cc(Cl)ccc1O.Cl [1078_10] | −9.97 | −152.67 | −164.78 | −84.11 | 123.40
34 | C[C@H](NC(=O)[C@H]1C[C@@H](c2ccccc2)CCN1)C(=O)NCc1cc(Cl)ccc1O.Cl [1078_11] | 37.14 | −120.02 | −112.40 | −55.96 | 136.21

same assay, conditions: Table A7-2; between pharmacophore elements of the bound compound

Row | SMILES | Pharmacophore torsion angle a(O1, O2, N2, CA2)
35 | C[C@H](NC(=O)[C@H]1C[C@@H](c2ccccc2)CCN1)C(=O)NCc1cc(Cl)ccc1O.Cl [1078_10] | 136.18
36 | C[C@H](NC(=O)[C@H]1C[C@@H](c2ccccc2)CCN1)C(=O)NCc1cc(Cl)ccc1O.Cl [1078_11] | 138.54

same assay, conditions: Table A8-6; 6th residue column; nearest protein atom in cell to the left

Row | SMILES | Pharmacophore protein distance to MET_658 (first MET_658 column)
37 | C[C@H](NC(=O)[C@H]1C[C@@H](c2ccccc2)CCN1)C(=O)NCc1cc(Cl)ccc1O.Cl [1078_10] | 3.04

same assay, conditions: Table A8-6; 9th residue column; nearest protein atom in cell to the left

Row | SMILES | Pharmacophore protein distance to MET_658 (second MET_658 column)
38 | C[C@H](NC(=O)[C@H]1C[C@@H](c2ccccc2)CCN1)C(=O)NCc1cc(Cl)ccc1O.Cl [1078_10] | 3.81

same assay, conditions: Table A8-6; nearest protein atom in cell to the left

Row | SMILES | Pharmacophore protein distance to GLY_528 | Pharmacophore protein distance to PHE_529 | Pharmacophore protein distance to PRO_608 | Pharmacophore protein distance to SER_611
39 | C[C@H](NC(=O)[C@H]1C[C@@H](c2ccccc2)CCN1)C(=O)NCc1cc(Cl)ccc1O.Cl [1078_10] | 3.40 | 3.08 | 3.66 | 2.78

same assay, conditions: Table A8-6; pharmacophore elements C6, CA3, O3, H1; nearest protein atom in cell to the left

Row | SMILES | Pharmacophore protein distance to TRP_655
40 | C[C@H](NC(=O)[C@H]1C[C@@H](c2ccccc2)CCN1)C(=O)NCc1cc(Cl)ccc1O.Cl [1078_10] | 3.89
